{
  "source": "patent EP0974351A2",
  "about": "“Medicament for preventing and treating gastrointestinal damage” (JOUVEINAL, priority 1998, dated 2000)",
  "key": {"[1]": {"system": "gastric damage induced by indomethacin", "test": "Indomethacin (80 mg/kg) gastric damage in rats, percent of gastric area damaged by image analysis", "assay_type": "in vivo, Male CD-Sprague-Dawley rats", "details": "indomethacin + vehicle 5.56 ± 0.48", "description": "The following test in rats was carried out to further establish the ability of gabapentin and Pregabalin to reduce the gastrointestinal damage caused by NSAIDS.\nMale CD-Sprague-Dawley rats (132-202 g) were received and housed in a room with controlled temperature, humidity, and 12-hour light/dark cycle. After a period of acclimatization of 4 to 5 days, and after a 24-hour food fasting period, animals were used for the study described below.\nGabapentin or pregabalin (CI-1008) were dissolved in water and administered orally at the following doses: 1, 10, 100, and 200 mg/kg in a volume of 1 mL. Control animals were dosed with an equal volume of vehicle (1 mL of water). Sixty minutes later, all the animals received 1 mL of a solution of 80 mg/kg indomethacin dissolved in 5% aqueous NaHCO3. Control animals received 1 mL of 5% aqueous NaHCO3 orally. Experimental groups were as follows:\nAnimals were sacrificed by decapitation 4 hours post-indomethacin administration. The stomach was removed and opened along the greater curvature and its image digitized and stored on an optical disk using a 486-based PC computer equipped with CUE3 system imaging analysis software (Olympus Corp., Marietta, Georgia, USA). Two 6-mm biopsies were taken from a constant region of the gastric mucosa located in each side of the glandular portion of the stomach and their PGE2 content was measured using a commercially available ELISA kit (Assay Designs Inc., Ann Arbor, Michigan, USA). The presence of gastric damage was determined using the retrieved electronic image, and the extent of damage was measured using the CUE3 imaging software. Data are expressed as a percent of gastric area damaged and the PGE2 content (pg/mL)."}, "[2]": {"system": "Colonic Threshold in Normal Rats", "test": "Colonic distension pain threshold in normal rats", "assay_type": "in vivo, Male Sprague-Dawley rats", "details": "normal rats, control 43.33, NS vs control", "description": "Male Sprague-Dawley rats weighing 340 to 400 g were used in the study. The animals were housed three per cage in a regulated environment (20 ± 1°C, 50 ± 5% humidity, with light 8:00 AM to 8:00 PM). Under anethesia (ketamine 80 mg/kg i.p.; acepromazin 12 mg/kg i.p.), TNBS (50 mg/kg), or saline (1.5 mL/kg) was injected into the proximal colon (1 cm from the cecum). After the surgery, animals were individually housed in the regulated environment.\nA balloon catheter (5-6 cm length) was inserted through the anus into the colon and kept in position (tip of balloon 5 cm from the anus) by taping the catheter to the base of the tail. The balloon was progressively inflated by step of 5 mm Hg, from 0 to 75 mm Hg, each step of inflation lasting 30 seconds. Each cycle of colonic distension was controlled by a standard barostat. The threshold corresponds to the pressure which produced the first abdominal contraction, at which time the cycle of distension was discontinued. To determine the colonic threshold, four cycles of distension were performed on the same animal.\nIn a first series of experiments, a group of eight rats treated with saline were subjected to a colonic distension session.\nAll test compounds were dissolved in saline except TNBS. TNBS was dissolved in EtOH 30% (w/v). Subcutaneous injection of vehicle was given in a volume of […].\nStatistical significance between each group was determined using a one-way ANOVA followed by Student's unpaired t-test. Differences were considered statistically significant at p <0.05."}, "[3]": {"system": "Inflammatory Colonic Pain Induced by Intramural Injection of Formalin 5%", "test": "Inflammatory colonic pain induced by intramural injection of formalin 5% in rats", "assay_type": "in vivo, Adult female Sprague-Dawley rats", "details": "for % Antinociception: intracolonic formalin 5%, 50 µL/rat; for pain score induced by intracolonic formalin (in words): gabapentin 100, 300, 500 mg/kg sc, CI-1008 100, 200 mg/kg sc", "description": "The GABA analogs were evaluated in another model to determine their effect on inflammatory visceral pain.\nAdministration of formalin into the wall of the rat colon causes acute inflammation and visceral pain. The aim of this study was to evaluate the antinociceptive activity of gabapentin and CI-1008 in visceral pain induced by colonic intrapariental injection of formalin.\nAdult female Sprague-Dawley rats weighing 240 to 260 g were used in the study. The animals were housed three per cage in a regulated environment (20 ± 1°C 50 ± 5% humidity, with light 8:00 AM to 8:00 PM) prior to use in the test.\nEach test animal was placed in a transparent plastic cage (27 x 43 x 25 cm) with a layer of wood shavings on the floor. Drinking water was available. Cages were placed in such a way that visual interaction between animals was avoided. A mirror was positioned behind each cage to improve the recording of behaviors. Each animal was initially allowed 20 minutes to get used to its surroundings. Anesthesia was then achieved by using isofurane (starting 4%, then 1.5% in a mixture of […] nitrous oxide and 1:3 oxygen). The animal was suspended by its tail, the rectum was gently emptied with a cotton-capped stalk, and a coloscope was inserted through the anus. This designed endoscope has a lateral slot that allows for puncture of the intestinal wall under visual control, using a 51-mm-long needle (26 ga), at about 35 mm from the anal margin. Injected solutions were either 50 µL 5% formalin, or the same volume of isotonic saline. Animals were allowed to recover from anesthesia as soon as the injection was completed (about 1 minute), and the observation period was started and continued for 2 hours. Thirty minutes after the end of the observation test, an IV injection of Evans Blue (1%) was administered, and 30 minutes later the animal was sacrificed. The abdomen was opened. The injection site and the zone of diffusion of Evans Blue were recorded by image analysis software. Data from rats in which the spread of the dye was not restricted to the sigmoid wall were discarded.\nAs listed in increasing order of pain intensity, these behaviors were: (i) abdominal licking and nibbling (L), (ii) body stretching, i.e., backward extension of the hind limbs (B), (iii) contraction of the flanks, sometimes evolving to a stretching attitude (C), and (iv) whole body contraction, the rat standing with its back curved, occasionally further graded according to the duration of the given episode: W1 for less than 30 seconds, W2 between 30 seconds and 1 minute, and W3 for more than 1 minute. Behaviors were recorded for each animal throughout the 2-hour test on individual charts. A pain score (S) was then calculated for each of the successive 15-minute periods, using the following formula: S = 1L + 2B + 3C + 4W1 + 5W2 + 6W3 [formula] whereby the pain score was proportional to (i) the number of episodes of each selected behavior, and (ii) the coefficient, from 1 to 6, attributed to the given behaviors.\nAll compounds were dissolved in saline. Subcutaneous injection of vehicle was given in a volume of […]. Formalin was purchased from Prolabo.\nStatistical significance between each group was determined by using a one-way ANOVA followed by Student's unpaired t-test. Differences were considered statistically significant at p <0.05.\nHyperalgesia is induced by intramural injection of formalin (5%, 50 µL/rat) into the colonic wall in unfasted female Sprague-Dawley rats. Gabapentin and CI-1008 were tested at 100, 300, 500 and 100, 200 mg/kg sc, respectively. […] The maximal inhibitory effect was observed after 500 mg/kg of gabapentin and 200 mg/kg of CI-1008."}, "[4]": {"details": "1 mg/kg orally 60 min before indomethacin 80 mg/kg, 4 hours post-indomethacin, average ± standard error"}, "[5]": {"details": "10 mg/kg orally 60 min before indomethacin 80 mg/kg"}, "[6]": {"details": "100 mg/kg orally 60 min before indomethacin 80 mg/kg"}, "[7]": {"details": "200 mg/kg orally 60 min before indomethacin 80 mg/kg"}},
  "data": [
    {"compound": "NCC1(CC(=O)O)CCCCC1", "note": "[Gabapentin, 1-(aminomethyl)-cyclohexane acetic acid]", "values": [
      {"measurement": "% Area Damaged", "setting": "[1]; [4]", "result": "2.99 ± 0.46", "unit": "%"},
      {"measurement": "% Area Damaged", "setting": "[1]; [5]", "result": "3.96 ± 0.35", "unit": "%"},
      {"measurement": "% Area Damaged", "setting": "[1]; [6]", "result": "1.87 ± 0.1", "unit": "%"},
      {"measurement": "% Area Damaged", "setting": "[1]; [7]", "result": "1.43 ± 0.40", "unit": "%"},
      {"measurement": "Colonic Threshold", "setting": "[2]; 500 mg/kg sc", "result": 43.75, "unit": "mm Hg"},
      {"measurement": "% Antinociception", "setting": "[3]; 0.3 mg/kg sc (so in the source)", "result": -7.73, "unit": "%"},
      {"measurement": "% Antinociception", "setting": "[3]; 100 mg/kg sc", "result": 13.62, "unit": "%"},
      {"measurement": "% Antinociception", "setting": "[3]; 300 mg/kg sc", "result": 55.07, "unit": "%"},
      {"measurement": "% Antinociception", "setting": "[3]; 500 mg/kg sc", "result": 88.01, "unit": "%"},
      {"measurement": "pain score induced by intracolonic formalin (in words)", "setting": "[3]", "result": "significantly and dose-dependently decreased"}
    ]},
    {"compound": "CC(C)C[C@H](CN)CC(=O)O", "note": "[CI-1008, (S)-3-(aminomethyl)-5-methylhexanoic acid]", "values": [
      {"measurement": "% Area Damaged", "setting": "[1]; [4]", "result": "8.07 ± 2.19", "unit": "%"},
      {"measurement": "% Area Damaged", "setting": "[1]; [5]", "result": "4.07 ± 0.42", "unit": "%"},
      {"measurement": "% Area Damaged", "setting": "[1]; [6]", "result": "1.99± 0.25", "unit": "%"},
      {"measurement": "% Area Damaged", "setting": "[1]; [7]", "result": "0.34 ± 0.06", "unit": "%"},
      {"measurement": "Colonic Threshold", "setting": "[2]; 200 mg/kg sc", "result": 46.41, "unit": "mm Hg"},
      {"measurement": "% Antinociception", "setting": "[3]; 100 mg/kg sc", "result": 18.55, "unit": "%"},
      {"measurement": "% Antinociception", "setting": "[3]; 200 mg/kg sc", "result": 70.81, "unit": "%"},
      {"measurement": "pain score induced by intracolonic formalin (in words)", "setting": "[3]", "result": "significantly and dose-dependently decreased"}
    ]}
  ]
}
